Assay results from article PMC4492731 (Pharmacology Research & Perspectives, 2015).
Like-named read-outs stand apart in the source and are kept apart here.

Key:
[1] = not given; remark: listed apart in the source
[2] = standard breakfast with GFJ; ref de Vries et al. [2015]; cited from earlier work
[3] = assay type: in vivo, human; conditions: for PCI-45227 mean AUClast / PCI-45227 mean Cmax / PCI-45227 tmax, median (range): fasted; for concentration at 2 h: rifampin plasma concentration, Study 2, day 11, 2 h after drug intake, rifampin 600 mg q.d.
[4] = test system: Bruton’s tyrosine kinase (BTK); conditions: reversible binding; ref Parmar et al. [2014]; cited from earlier work
[5] = Study 1, ibrutinib 120 mg alone, fasted
[6] = Study 1, ibrutinib 40 mg + ketoconazole 400 mg, fasted
[7] = Study 1, ibrutinib + ketoconazole vs ibrutinib alone
[8] = Study 2, ibrutinib 560 mg + rifampin 600 mg
[9] = Study 2, ibrutinib 560 mg alone

Question: Which results are given for C=CC(=O)N1CCC[C@@H](n2nc(-c3ccc(Oc4ccccc4)cc3)c3c(N)ncnc32)C1 [Ibrutinib, reference compound]?
Answer: mean DN_AUClast of ibrutinib (Study 1, ibrutinib 120 mg alone, day 1, fasted): 71.4 ng·h/mL; mean DN_Cmax of ibrutinib (Study 1, ibrutinib 120 mg alone, day 1, fasted, healthy men): 11.8 ng/mL; AUClast geometric mean [5]: 61 ng·h/mL; AUC (human, in vivo, 120 mg): 56 ng·h/mL; AUC(0-inf) (human, in vivo, 120 mg): 71 ng·h/mL; AUCs of ibrutinib following i.v. administration with and without GFJ ([1]; Study 3, nonfasted, i.v. dose of 100 μg 13C6 PCI-32765): the same; AUC ([1]; human, in vivo, 560 mg): 529 ng·h/mL; AUC(0-inf) ([1]; human, in vivo, 560 mg): 643 ng·h/mL; absolute oral bioavailability (F) [2]: 15.9%; AUC(0-inf) ([3]; human, plasma, oral, 560 mg): 300 ng·h/mL

Question: What does the source list for Nc1ncnc2c1c(-c1ccc(Oc3ccccc3)cc1)nn2[C@@H]1CCCN(C(=O)C(O)CO)C1 (stereo partly drawn) [PCI-45227]?
Answer: PCI-45227 t1/2, mean (SD) [6]: 18.00 h; PCI-45227 tmax, median (range) [6]: 4.00 h; PCI-45227 DN_AUClast [5]: 304 ng·h/mL; PCI-45227 DN_Cmax [5]: 29.1 ng/mL; PCI-45227 t1/2, mean (SD) [5]: 11.41 h; PCI-45227 tmax, median (range) [5]: 2.00 h; mean metabolite to parent ratio for Cmax (Study 1, ibrutinib + ketoconazole): 0.05; decrease of PCI-45227 DN_AUClast with ketoconazole [7]: 1.2 times lower; decrease of PCI-45227 DN_Cmax with ketoconazole [7]: 2.6 times lower; mean metabolite to parent ratio for Cmax (Study 1, ibrutinib alone): 2.64; effect of GFJ on tmax of PCI-45227 ([1]; Study 3): no effect; dose-normalized PCI-45227 concentrations and AUCs with or without GFJ ([1]; Study 3, oral ibrutinib): comparable; Cmax metabolite-to-parent ratio ([1]; Study 3, with GFJ): 0.32; Cmax metabolite-to-parent ratio ([1]; Study 3, without GFJ): 1.03; inhibitory activity toward BTK relative to ibrutinib [4]: approximately 15 times lower; PCI-45227 mean AUClast [3, 8]: 374 ng·h/mL; PCI-45227 mean Cmax [3, 8]: 49.9 ng/mL; PCI-45227 tmax, median (range) [3, 8]: 3.00 h; PCI-45227 mean AUClast [3, 9]: 946 ng·h/mL; PCI-45227 mean Cmax [3, 9]: 70.0 ng/mL; PCI-45227 tmax, median (range) [3, 9]: 2.02 h; metabolite to parent ratio for Cmax ([3]; Study 2, ibrutinib + rifampin): 20.80; metabolite to parent ratio for Cmax ([3]; Study 2, ibrutinib alone): 2.09

Question: Which “ketoconazole plasma concentration, two participants with very low concentrations” value (Study 1, day 7, individual values) does the source give for CC(=O)N1CCN(c2ccc(OCC3COC(Cn4ccnc4)(c4ccc(Cl)cc4Cl)O3)cc2)CC1 (stereo not drawn) [ketoconazole, reference compound] here?
Answer: The value was 231 ng/mL.

Question: For CO[C@H]1/C=C/O[C@@]2(C)Oc3c(C)c(O)c4c(O)c(c(/C=N/N5CCN(C)CC5)c(O)c4c3C2=O)NC(=O)/C(C)=C\C=C\[C@H](C)[C@H](O)[C@@H](C)[C@@H](O)[C@@H](C)[C@H](OC(C)=O)[C@@H]1C [rifampin, reference compound], which concentration at 2 h ([3]; human, plasma, oral, mean ± SD) is on record?
Answer: The concentration at 2 h was 9250 ± 4960 ng/mL.

Question: And the concentration at 2 h ([3]; human, plasma, oral, range)?
Answer: The concentration at 2 h was 289 to 18400 ng/mL.
